Results reported in patent publication US20100310563A1, “METHODS FOR TREATING INDUCED CELLULAR PROLIFERATIVE DISORDERS” (priority 2007, published 2010).

Test system: phosphorylated JAK2 in GFP positive peripheral blood granulocytes of the JAK2V617F mouse
Test: FACS analysis of intracellular JAK2 phosphorylation in peripheral blood granulocytes
Assay type: cell-based
Settings: with IL-3 and G-CSF stimulation for 60 minutes, GFP-positive granulocytes of a JAK2V617F mouse, FIG. 4B bottom
Experimental: White cells from bone marrow and spleen were resuspended in staining buffer (BD Biosciences). Aliquots of 1×10^6 cells were stained for 20 minutes with conjugated monoclonal antibodies. Cells were washed in staining buffer and analyzed by FACS. For FACS analysis of intracellular JAK2 phosphorylation, peripheral blood of one JAK2V617F mouse and three normal BALB/c mice were collected. WBC from normal BALB/c mice were pooled together. Cells were split into three aliquots and resuspended in RPMI 1640 (Life Technologies) containing 0.5% BSA and incubated for 15 hours. Following incubation, one aliquot was stimulated with 10 ng/mL IL-3 plus 10 ng/mL granulocyte colonystimulating factor (G-CSF; StemCell) and second aliquot was stimulated with 10 ng/mL IL3, 10 ng/mL G-CSF, and 10 Amol/L AG-490 (Calbiochem) for 60 minutes and third aliquot was left unstimulated. Cells ([…]) were resuspended in 50 AL staining buffer (1% BSA and 0.1% sodium azide in PBS) and permeabilized using Fix&Perm cell permeabilization kit (Caltag Laboratories, Burlingame, Calif. and An der Grub, Vienna, Austria). The granulocyte population was selected by forward and side scatter
To test if the mutant JAK2V617F kinase in murine leukocytes is constitutively active, peripheral blood granulocytes was analyzed by FACS for phosphorylated JAK2. […]

Structure (SMILES): N#C/C(=C/c1ccc(O)c(O)c1)C(=O)NCc1ccccc1 [AG490]
- phosphorylated JAK2 levels: reduced phosphorylated JAK2 levels below baseline
